This note sets out measurements from patent US20240316020A1, “Novel Pyridine Compounds” (ICAGEN, LLC, priority 2021, published 2024).

The target of one data set is human Kv7.2 (Homo sapiens (Human), UniProt O43526). Nature of the data set: SyncroPatch 384 electrophysiology, CHO cells stably expressing human Kv7.2. The class given is cell-based. As to the method:
(§1) The potency of Kv7 potentiators was determined using the SyncroPatch 384 (Nanion) high throughput electrophysiology platform.
(§2) CHO cells stably expressing either human Kv7.2, Kv7.4 or Kv7.5/7.3 under a constitutive CMV promoter were used for these studies. Cells were maintained in F12 Hams+1 mM L-glutamine (Hyclone) supplemented with 10% FBS (Sigma), 0.3×NEAA (Non-essential Gamino-acids) and 400 ug/ml G418 at 37° C. in 5% CO2. Cells were cultured in T-225 flasks (Nunc) for 2-3 days to reach 85-95% confluence prior to electrophysiological recording.
(§3) Earle's balanced salt solution (in mM): 135 NaCl, 5.4 KCl, 5 Glucose, 2 CaCl2, 1 MgCl2, 5 HEPES, pH 7.4. Seal enhancer solution (in mM): 90 NaCl, 3 KCl, 35 CaCl2, 10 MgCl2, 10 HEPES, pH 7.4. Extracellular recording solution (in mM): 71 NaCl, 70 NMDG, 13 KCl, 5 Glucose, 2 CaCl2, 1 MgCl2, 10 HEPES, pH 7.4. Intracellular recording solution (in mM): 130 KF, 20 KCl, 4 EGTA, 10 HEPES, 2 EDTA, 0.01 Escin, pH 7.2.
(§4) Cells were harvested for electrophysiological recording upon reaching appropriate confluence. Cells were first washed in DPBS (Hyclone, Cat #SH30028.03) and then 2 ml of Accutase (MP Biomedicals #1000449) was added at 28° C. until ˜90% of cells were suspended. F12 HAM's media+1 mM L-glutamine (Hyclone, SH30026.02) was then added to the flask to dilute the accutase. Cells were then triturated until a single cell suspension was achieved, a cell count was performed, and cells were centrifuged for 2 min. at 1,000 rpm. Media was then aspirated, and cells were resuspended in Earle's balanced salt solution to a concentration of 0.75×10^6 cells/ml and allowed to recover for 25 min at 10° C.
(§5) At the beginning of each assay, 20 μl of cell suspension was dispensed into each well of a multi-hole 384-well SyncroPatch chip by the onboard pipettor. Cell sealing was initiated, and seal enhancer solution was added to facilitate seal formation. Upon completion of sealing, cells were washed 3 times with extracellular recording solution and the assay voltage protocol was started. Human Kv7.2, Kv7.4 or Kv7.5/7.3 channels were evaluated using a voltage protocol in which cells were voltage-clamped at a holding potential of −60 mV. Potassium currents were continuously activated with a series of three voltage steps to −30 mV for 3 seconds, 40 mV for 1 second and −90 mV for 4 seconds with 12 seconds between successive voltage sweeps. Potassium currents were measured from the −90 mV repolarizing step. Baseline current was assessed for 3.5 minutes prior to the addition of 5.6 μM zinc pyrithione (1 μM for Kv7.4). Kv7.2, Kv7.4 or Kv7.5/7.3 current in the presence of zinc pyrithione was acquired over five minutes to allow channels to reach steady state activity prior to addition of test agents. Channel activity was monitored for three minutes preceding the addition of 30 μM ML-213 (3 minutes) to achieve maximum activation.
(§6) Data were collected on the SyncroPatch platform using PatchControl software (Nanion) and processed and analyzed using DataControl Software (Nanion). Percent activation was calculated from potassium current as follows: The average current for the 5 sweeps in the presence of zinc pyrithione immediately preceding test agent addition was taken as the ‘control’ data. Likewise, the average potassium current in the presence of test agents 5 sweeps immediately preceding addition of 30 μM ML-213 was determined for ‘drug’ data. The average potassium current 5 sweeps immediately prior to addition of 150 mM TEA+10 μM XE-991 was determined for ‘max activation’ data while average currents from 5 sweeps immediately following addition of TEA was determined for ‘max inhibition’ data. Percent activation for each of the 384-wells of a sealchip was calculated as ((‘drug’−‘max inhibition’)/(‘max activation’−‘max inhibition’))*100 with Pipeline Pilot (Accelrys). […]

A short description of data set [1]: Human liver microsomal clearance. The class given is in vitro ADME. Particulars: both sexes, liver microsomes, Table B, 0.5 μM compound, 0.25 mg/mL microsomes, NADPH, 37° C., read-out: Human liver microsomal intrinsic clearance CLint. The protocol: Pooled mixed gender human liver microsomes were purchased from BioIVT at a concentration of 20 mg protein/mL and stored at −80° C. Incubations were conducted in V-bottomed 350 μL polypropylene 96-well plates. Compounds were diluted in phosphate buffer (final concentrations 0.5 μM compound, 0.5% DMSO) and mixed with diluted liver microsomes (fc 0.25 mg/mL). This mixture was aliquoted onto the assay plate (six wells per compound) and pre-warmed at 37° C. for ten minutes. Addition of NADPH (fc 0.5 mM, final incubation volume 100 μL) to each well started the time course. Reactions were stopped at 0.5, 3, 5, 10, 20 & 30 minutes by addition of 150 μL acetonitrile containing internal standard (IS; 0.125 μg/mL daidzein) and stopped samples were removed to a clean polypropylene plate. At the end of the assay the plate was refrigerated for an hour and then centrifuged at 3000 rpm for 10 minutes at 4° C. A sample of the supernatant was removed to a fresh plate and diluted 10-fold with 50:50 acetonitrile:water, then heat sealed. Analysis was by liquid chromatography coupled with tandem mass spectrometry (LC-MS/MS) for analyte and IS levels. Ratios of the analyte and IS peak areas were generated for results calculation (IS ratio). Dextromethorphan and verapamil were included in each experiment as controls for high clearance compounds. IS ratio data were converted into natural log values which were plotted against time and a linear regression fit applied. The slope of the line was returned and converted into the elimination constant (kel) by multiplying by −1. The elimination constant was used to calculate the in vitro CLint: in vitro CLint (μL/min/mg protein) is kel* (1000/protein conc in mg/mL).

The next data set deals with human Kv7.5/7.3 (Homo sapiens (Human), UniProt O43525+Q9NR82). Put plainly: SyncroPatch 384 electrophysiology, CHO cells stably expressing human Kv7.5/7.3. The class given is cell-based. Particulars: Table A; for Kv7.5/7.3/Kv7.2 selectivity ratio: Kv7.5/7.3 EC50 over Kv7.2 EC50. As to the method:
as §1, §2, §3, §4, §5, §6

The mark [2] stands for this setting: Table 1, CHO cells, potassium current at -90 mV step, in presence of zinc pyrithione.

human Kv7.2, sequence (O43526 whole entry): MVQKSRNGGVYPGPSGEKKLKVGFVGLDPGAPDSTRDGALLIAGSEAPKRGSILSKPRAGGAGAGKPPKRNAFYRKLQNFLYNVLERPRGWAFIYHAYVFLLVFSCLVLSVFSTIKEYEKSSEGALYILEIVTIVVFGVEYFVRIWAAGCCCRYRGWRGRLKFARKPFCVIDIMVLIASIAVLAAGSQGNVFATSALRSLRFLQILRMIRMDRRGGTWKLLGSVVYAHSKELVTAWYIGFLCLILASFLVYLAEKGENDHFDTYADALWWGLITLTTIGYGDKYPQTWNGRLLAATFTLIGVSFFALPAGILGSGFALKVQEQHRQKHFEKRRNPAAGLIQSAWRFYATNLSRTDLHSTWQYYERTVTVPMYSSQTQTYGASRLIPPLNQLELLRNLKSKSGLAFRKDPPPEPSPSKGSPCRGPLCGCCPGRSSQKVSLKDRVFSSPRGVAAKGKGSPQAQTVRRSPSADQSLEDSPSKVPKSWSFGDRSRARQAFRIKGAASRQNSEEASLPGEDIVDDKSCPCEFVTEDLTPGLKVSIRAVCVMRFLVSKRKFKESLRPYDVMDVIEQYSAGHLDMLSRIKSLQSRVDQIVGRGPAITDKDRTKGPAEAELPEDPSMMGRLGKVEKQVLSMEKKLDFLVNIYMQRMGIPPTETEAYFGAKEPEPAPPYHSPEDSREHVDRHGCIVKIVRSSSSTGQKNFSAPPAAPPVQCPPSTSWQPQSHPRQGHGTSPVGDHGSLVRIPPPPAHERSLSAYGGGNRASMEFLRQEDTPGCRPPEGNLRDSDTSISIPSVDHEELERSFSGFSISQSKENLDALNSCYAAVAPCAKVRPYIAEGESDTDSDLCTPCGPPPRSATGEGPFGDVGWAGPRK
human Kv7.5/7.3, sequence (Q9NR82 whole entry): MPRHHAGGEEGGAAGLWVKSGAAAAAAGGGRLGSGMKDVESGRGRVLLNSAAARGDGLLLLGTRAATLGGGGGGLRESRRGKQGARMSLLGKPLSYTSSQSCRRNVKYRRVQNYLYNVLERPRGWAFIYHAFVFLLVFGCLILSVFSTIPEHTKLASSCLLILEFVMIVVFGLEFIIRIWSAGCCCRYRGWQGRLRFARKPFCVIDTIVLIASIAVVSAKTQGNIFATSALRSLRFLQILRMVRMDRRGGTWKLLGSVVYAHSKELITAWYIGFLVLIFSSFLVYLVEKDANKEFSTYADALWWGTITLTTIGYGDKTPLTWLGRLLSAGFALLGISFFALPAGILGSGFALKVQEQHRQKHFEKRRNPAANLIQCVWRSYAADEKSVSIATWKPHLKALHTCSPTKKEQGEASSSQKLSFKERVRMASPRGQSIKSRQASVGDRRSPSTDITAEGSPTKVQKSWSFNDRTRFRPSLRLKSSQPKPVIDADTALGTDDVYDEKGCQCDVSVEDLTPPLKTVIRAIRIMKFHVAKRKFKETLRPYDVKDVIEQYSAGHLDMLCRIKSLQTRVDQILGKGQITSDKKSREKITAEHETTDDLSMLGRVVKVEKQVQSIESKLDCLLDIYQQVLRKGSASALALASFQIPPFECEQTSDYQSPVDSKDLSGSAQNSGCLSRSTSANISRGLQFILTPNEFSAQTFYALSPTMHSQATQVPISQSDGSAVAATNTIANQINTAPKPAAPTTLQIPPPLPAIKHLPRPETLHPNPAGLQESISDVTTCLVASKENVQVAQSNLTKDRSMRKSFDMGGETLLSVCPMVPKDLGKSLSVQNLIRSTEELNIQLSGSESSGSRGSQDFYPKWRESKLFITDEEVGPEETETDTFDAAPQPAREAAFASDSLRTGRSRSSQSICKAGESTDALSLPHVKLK
human Kv7.5/7.3, sequence (O43525 whole entry): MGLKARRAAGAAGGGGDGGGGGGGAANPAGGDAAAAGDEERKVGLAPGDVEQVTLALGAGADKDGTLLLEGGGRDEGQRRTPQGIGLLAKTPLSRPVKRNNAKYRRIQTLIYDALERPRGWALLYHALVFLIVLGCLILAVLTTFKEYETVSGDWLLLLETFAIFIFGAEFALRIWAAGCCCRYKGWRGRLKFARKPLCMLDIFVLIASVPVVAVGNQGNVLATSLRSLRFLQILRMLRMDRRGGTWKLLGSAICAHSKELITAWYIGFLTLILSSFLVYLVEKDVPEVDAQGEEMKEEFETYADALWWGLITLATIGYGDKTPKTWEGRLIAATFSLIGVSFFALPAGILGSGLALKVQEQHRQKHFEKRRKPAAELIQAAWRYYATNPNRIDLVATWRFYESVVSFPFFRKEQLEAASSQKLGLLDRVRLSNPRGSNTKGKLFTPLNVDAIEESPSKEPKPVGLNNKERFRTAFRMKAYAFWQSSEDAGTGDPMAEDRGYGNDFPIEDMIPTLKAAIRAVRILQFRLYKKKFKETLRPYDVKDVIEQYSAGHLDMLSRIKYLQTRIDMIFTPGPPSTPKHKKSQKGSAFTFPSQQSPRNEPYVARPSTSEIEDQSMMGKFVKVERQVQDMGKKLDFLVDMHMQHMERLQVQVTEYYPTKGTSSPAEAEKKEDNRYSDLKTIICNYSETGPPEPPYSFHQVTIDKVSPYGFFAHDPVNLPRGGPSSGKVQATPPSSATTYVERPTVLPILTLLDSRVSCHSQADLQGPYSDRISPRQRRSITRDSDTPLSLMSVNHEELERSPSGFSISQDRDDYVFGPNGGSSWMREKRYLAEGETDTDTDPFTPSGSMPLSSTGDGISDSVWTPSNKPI

`O=C(NCc1ccnc(OC(F)F)c1)NC1CCC2(CCC2)OC1` (stereo not shown) [Example 32, 1-[[2-(difluoromethoxy)pyridin-4-yl]methyl]-3-(5-oxaspiro[3.5]nonan-7-yl)urea]: the EC50 on human Kv7.2 (setting [2]) came to 550 nM.
On to `O=C(NCc1ccnc(OCC(F)CF)c1)NC1CC2(CCC2)C1` (stereo not shown) [Example 29, 1-[[2-(2,3-difluoropropoxy)pyridin-4-yl]methyl]-3-spiro[3.3]heptan-2-ylurea], for which, at human Kv7.2 (setting [2]), the half-maximal effective concentration (EC50) worked out at 100 nM.
Turning to `O=C(NCc1ccnc(OC(F)F)c1)NC1CCC2(CC1)CC2(F)F` (stereo not shown) [Example 31, 1-[[2-(difluoromethoxy)pyridin-4-yl]methyl]-3-(2,2-difluorospiro[2.5]octan-6-yl)urea], the microsomal CLint at 0.5 μM in data set [1] came out at 18.8 µL/min/mg. Further, the EC50 on human Kv7.2 (setting [2]) stood at 140 nM.
For `O=C(NCc1ccnc(OC(F)F)c1)NC1CC2(C1)CC2(F)F` (stereo not shown) [Example 15, 1-[[2-(difluoromethoxy)pyridin-4-yl]methyl]-3-(2,2-difluorospiro[2.3]hexan-5-yl)urea], in data set [1], the microsomal CLint at 0.5 μM worked out at 11.3 µL/min/mg. For the same molecule, the concentration for a half-maximal effect (EC50) at human Kv7.2 (setting [2]) was 3100 nM.
`O=C(NCc1ccnc(OC(F)F)c1)NC1CC12CCC2` (stereo not shown) [Example 23, 1-[[2-(difluoromethoxy)pyridin-4-yl]methyl]-3-spiro[2.3]hexan-2-ylurea]: the figures for the half-maximal effective concentration (EC50) on human Kv7.5/7.3, at human Kv7.2 (setting [2]) and at human Kv7.2 (Table A) were > 30 µM, 1940 nM and 1940 nM, respectively. Besides, at human Kv7.5/7.3, the Kv7.5/7.3/Kv7.2 selectivity ratio is >15.
`O=C(NCc1ccnc(OC(F)F)c1)NC1COC12CCCCC2` (stereo not shown) [Example 20, 1-[[2-(difluoromethoxy)pyridin-4-yl]methyl]-3-(1-oxaspiro[3.5]nonan-3-yl)urea]: at human Kv7.2 (setting [2]), the EC50 came out at 8430 nM.
Same read-out and setting: the result for `CC(F)(F)COc1cc(CNC(=O)NC2CC3(CCC3)C2)ccn1` [Example 5, 1-[[2-(2,2-difluoropropoxy)pyridin-4-yl]methyl]-3-spiro[3.3]heptan-2-ylurea] reads 20 nM.
Take `O=C(NCc1ccnc(OC(F)F)c1)NC1CC2(CC2)C1` [Example 8, 1-[[2-(difluoromethoxy)pyridin-4-yl]methyl]-3-spiro[2.3]hexan-5-ylurea]: the intrinsic metabolic clearance (microsomal CLint) at 0.5 μM in data set [1] is 5.2 µL/min/mg. The EC50 on human Kv7.2 (setting [2]) amounted to 60 nM.
Regarding `O=C(NCc1ccnc(OC(F)F)c1)NC1COC2(CCCC2)C1` (stereo not shown) [Example 3, 1-[[2-(difluoromethoxy)pyridin-4-yl]methyl]-3-(1-oxaspiro[4.4]nonan-3-yl)urea], the EC50 on human Kv7.2 (setting [2]) came out at 500 nM.
On to `O=C(NCc1ccnc(OC(F)F)c1)NC1CCC2(C1)CC2(F)F` (stereo not shown) [Example 19, 1-[[2-(difluoromethoxy)pyridin-4-yl]methyl]-3-(2,2-difluorospiro[2.4]heptan-6-yl)urea], for which the EC50 was > 30 µM on human Kv7.5/7.3, 350 nM on human Kv7.2 (setting [2]) and 350 nM at human Kv7.2 (Table A). Moreover, the Kv7.5/7.3/Kv7.2 selectivity ratio on human Kv7.5/7.3 was >86.
As for `O=C(NCc1ccnc(OC(F)F)c1)N[C@H]1CC2(CCC2)[C@H]1O` (racemic) [Example 26, 1-[[2-(difluoromethoxy)pyridin-4-yl]methyl]-3-[rac-(2R,3S)-3-hydroxyspiro[3.3]heptant-2-yl]urea], the intrinsic metabolic clearance (microsomal CLint) at 0.5 μM in data set [1] is 11.5 µL/min/mg. Besides, the EC50 at human Kv7.2 (setting [2]) stood at 440 nM.
For `O=C(NCc1ccnc(OC(F)F)c1)NC1CC2(CC(F)C2)C1` (stereo not shown) [Example 16, 1-[[2-(difluoromethoxy)pyridin-4-yl]methyl]-3-(2-fluorospiro[3.3]heptan-6-yl)urea], the microsomal CLint at 0.5 μM in data set [1] came out at 10.7 µL/min/mg. For the same molecule, on human Kv7.2 (setting [2]), the EC50 was found to be 150 nM.
In the case of `O=C(NCc1ccnc(-n2cccn2)c1)NC1CCOC2(CCCC2)C1` (stereo not shown) [Example 2, 1-(6-oxaspiro[4.5]decan-9-yl)-3-[(2-pyrazol-1-ylpyridin-4-yl)methyl]urea], the EC50 at human Kv7.2 (setting [2]) came to 8490 nM.
For `O=C(NCc1ccnc(OC(F)F)c1)NC1CC2(CCC2)C1` [Example 4, 1-[[2-(difluoromethoxy)pyridin-4-yl]methyl]-3-spiro[3.3]heptan-2-ylurea], the 50% effective concentration (EC50) at human Kv7.2 (setting [2]) is 20 nM.
For the molecule `O=C(NCc1ccnc(OC(F)F)c1)NC1(CO)CC2(CCC2)C1` [Example 18, 1-[[2-(difluoromethoxy)pyridin-4-yl]methyl]-3-[2-(hydroxymethyl)spiro[3.3]heptan-2-yl]urea], the EC50 on human Kv7.2 (setting [2]) was found to be 410 nM.
For the molecule `O=C(NCc1ccnc(OC(F)F)c1)NC1C(F)(F)C12CCC2` (stereo not shown) [Example 24, 1-[[2-(difluoromethoxy)pyridin-4-yl]methyl]-3-(2,2-difluorospiro[2.3]hexan-1-yl)urea], the EC50 is > 30 µM at human Kv7.5/7.3, 340 nM at human Kv7.2 (setting [2]) and 340 nM at human Kv7.2 (Table A). Also, the Kv7.5/7.3/Kv7.2 selectivity ratio at human Kv7.5/7.3 was >89.
Turning to `CC(F)COc1cc(CNC(=O)NC2CC3(CCC3)C2)ccn1` (stereo not shown) [Example 6, 1-[[2-(2-fluoropropoxy)pyridin-4-yl]methyl]-3-spiro[3.3]heptan-2-ylurea], the EC50 at human Kv7.2 (setting [2]) was 60 nM.
Take `O=C(NCc1ccnc(C(F)(F)F)c1)NC1CC2(CCC2)C1` [Example 10]: the EC50 on human Kv7.2 (setting [2]) was 190 nM.
On to `O=C(NCc1ccnc(OC(F)F)c1)N[C@@H]1CC2(CCC2)[C@@H]1O` [Example 28, 1-[[2-(difluoromethoxy)pyridin-4-yl]methyl]-3-[(2R,3S)-3-hydroxyspiro[3.3]heptan-2-yl]urea], for which the results for the EC50 on human Kv7.5/7.3, on human Kv7.2 (setting [2]) and on human Kv7.2 (Table A) were > 30 µM, 500 nM and 500 nM, respectively. For the same molecule, the Kv7.5/7.3/Kv7.2 selectivity ratio on human Kv7.5/7.3 is >60.
Consider `O=C(NCc1ccnc(OC(F)F)c1)NC1CCC2(CCC2)C1` (stereo not shown) [Example 11, 1-[[2-(difluoromethoxy)pyridin-4-yl]methyl]-3-spiro[3.4]octan-7-ylurea], for which, on human Kv7.2 (setting [2]), the EC50 was 20 nM.
Still for that read-out and setting: as for `O=C(NC1CC2(CCC2)C1)NC(CO)c1ccnc(OCC(F)(F)F)c1` (stereo not shown) [Example 13, 1-[2-hydroxy-1-[2-(2,2,2-trifluoroethoxy)pyridin-4-yl]ethyl]-3-spiro[3.3]heptan-2-ylurea], the figure is 70 nM; as for `O=C(NCc1ccnc(OCC2CC2)c1)NC1CC2(CCC2)C1` [Example 7, 1-[[2-(cyclopropylmethoxy)pyridin-4-yl]methyl]-3-spiro[3.3]heptan-2-ylurea], 50 nM.
In the case of `O=C(NCc1ccnc(OC(F)F)c1)NC1COC2(CCCCC2)C1` (stereo not shown) [Example 30, 1-[[2-(difluoromethoxy)pyridin-4-yl]methyl]-3-(1-oxaspiro[4.5]decan-3-yl)urea], on human Kv7.2 (setting [2]), the concentration for a half-maximal effect (EC50) is 450 nM.
